# Measurements from patent publication US8173689B2 (Novartis AG, priority 2006, dated 2012).
# Where two headings read alike, the source gives them in different places.
# Columns and labels:
# [1] = molecular target: T1, full-length human CSF-1R receptor (Homo sapiens, UniProt P07333); test: In vitro inhibition of CSF-1R receptor tyrosine phosphorylation in transfected HEK293H cells stimulated with MCSF; format: cell-based; conditions: HEK293-H, tested at about 1 μM, read-out: pCSF1R percent inhibition
# T1 construct: transfected with the full-length human CSF-1R receptor cloned in house; expressed in transfected cells; host or cells: HEK293H (Invitrogen Cat. #11631017)
# Procedure: The lysate was then transferred to total CSF-1R antibody coated 96-well plates that had already been blocked with 3% Blocker A from Mesoscale discovery (MSD) for 2 hours and washed afterwards. Lysates were incubated overnight at 4° C. and the plates were then washed 4× with MSD Tris Wash Buffer. […] The plates were read on the Sector 6000 instrument (MSD). Raw data was imported in Abase and EC50s calculated with XL-fit data analysis software.
# [2] = molecular target: T2, cytoplasmic domain of the human CSF-1R (Homo sapiens, UniProt P07333); test: In vitro kinase assay for colony stimulating factor-1 receptor (AlphaScreen); format: biochemical; conditions: tested at about 1 μM, read-out: CSF-1R percent inhibition
# T2 construct: Recombinant protein corresponding to the cytoplasmic domain of the human CSF-1R; purchased Invitrogen Corporation, Carlsbad, Calif; PV3249
# T2 sequence (P07333 539-972 limits assumed): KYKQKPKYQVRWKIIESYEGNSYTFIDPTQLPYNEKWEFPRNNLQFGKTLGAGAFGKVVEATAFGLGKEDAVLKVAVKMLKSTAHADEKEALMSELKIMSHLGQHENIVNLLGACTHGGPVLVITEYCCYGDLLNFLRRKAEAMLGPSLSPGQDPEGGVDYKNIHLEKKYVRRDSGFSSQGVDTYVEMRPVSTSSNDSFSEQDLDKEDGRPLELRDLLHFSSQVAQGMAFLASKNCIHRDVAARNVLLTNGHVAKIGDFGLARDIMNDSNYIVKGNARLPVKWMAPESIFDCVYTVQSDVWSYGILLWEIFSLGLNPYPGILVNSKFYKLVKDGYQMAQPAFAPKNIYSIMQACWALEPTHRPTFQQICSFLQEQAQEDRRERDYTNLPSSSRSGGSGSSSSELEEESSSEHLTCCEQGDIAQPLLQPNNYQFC
# Method in brief: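 At a low ATP level of 1 μM, phosphate transfer by the cytoplasmic-domain kinase (4 nM) was quantified with an AlphaScreen anti-phosphotyrosine bead pair.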
# kinase domain of PDGFRβ = molecular target: T3, kinase domain of PDGFRβ (Homo sapiens, UniProt P09619); test: Inhibition of PDGFRb kinase signaling in an in vitro biochemical assay (alphascreen); conditions: tested at about 1 μM, read-out: PDGFRβ percent inhibition
# T3 construct: The kinase domain of PDGFRβ was assayed in 50 mM Hepes; purchased Invitrogen P3082
# kinase domain of cKIT = molecular target: T4, kinase domain of cKIT (Homo sapiens, UniProt P10721); test: Inhibition of cKIT kinase signaling in an in vitro biochemical assay (alphascreen); conditions: tested at about 1 μM, read-out: cKit percent inhibition
# T4 construct: The kinase domain of cKIT was assayed in 50 mM Hepes; purchased Upstate 14-559
# [3] = test system: MNFS60 (murine AML cells); test: Cell viability assay in MCSF dependent MNFS60 cells (Cell Titer Glo); format: cell-based; conditions: Mus musculus, tested at about 1 μM, read-out: M-NFS-60 CP percent inhibition
# Method in brief: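 Three-fold serial compound dilutions, prepared in DMSO at 500× the final level, were applied alongside MCSF (final 10 ng/ml). Incubation lasted 72 hrs (37° C., 5% CO2) before CellTiter-Glo addition. Triplicate points were curve-fitted for EC50.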
# T4 sequence (P10721 589-937 limits assumed): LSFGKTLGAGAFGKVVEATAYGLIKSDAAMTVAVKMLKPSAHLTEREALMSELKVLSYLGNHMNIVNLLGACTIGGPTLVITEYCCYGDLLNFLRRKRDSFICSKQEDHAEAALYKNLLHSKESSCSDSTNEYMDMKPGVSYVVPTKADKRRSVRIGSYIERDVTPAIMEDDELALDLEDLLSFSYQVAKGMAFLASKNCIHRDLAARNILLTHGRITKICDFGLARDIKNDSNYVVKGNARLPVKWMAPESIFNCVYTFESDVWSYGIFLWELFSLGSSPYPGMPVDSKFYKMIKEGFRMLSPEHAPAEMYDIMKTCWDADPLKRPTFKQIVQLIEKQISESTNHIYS
# T3 sequence (P09619 600-962 limits assumed): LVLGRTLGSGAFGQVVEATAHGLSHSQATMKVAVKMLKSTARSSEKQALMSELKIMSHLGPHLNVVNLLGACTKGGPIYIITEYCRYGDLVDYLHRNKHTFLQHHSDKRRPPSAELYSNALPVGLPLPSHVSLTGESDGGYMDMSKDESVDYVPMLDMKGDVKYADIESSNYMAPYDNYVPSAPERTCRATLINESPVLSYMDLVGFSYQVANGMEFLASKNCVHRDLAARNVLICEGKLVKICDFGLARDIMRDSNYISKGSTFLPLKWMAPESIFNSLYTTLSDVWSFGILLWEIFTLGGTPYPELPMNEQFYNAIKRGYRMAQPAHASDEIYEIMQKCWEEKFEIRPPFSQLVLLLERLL
# T1 sequence (P07333 20-972): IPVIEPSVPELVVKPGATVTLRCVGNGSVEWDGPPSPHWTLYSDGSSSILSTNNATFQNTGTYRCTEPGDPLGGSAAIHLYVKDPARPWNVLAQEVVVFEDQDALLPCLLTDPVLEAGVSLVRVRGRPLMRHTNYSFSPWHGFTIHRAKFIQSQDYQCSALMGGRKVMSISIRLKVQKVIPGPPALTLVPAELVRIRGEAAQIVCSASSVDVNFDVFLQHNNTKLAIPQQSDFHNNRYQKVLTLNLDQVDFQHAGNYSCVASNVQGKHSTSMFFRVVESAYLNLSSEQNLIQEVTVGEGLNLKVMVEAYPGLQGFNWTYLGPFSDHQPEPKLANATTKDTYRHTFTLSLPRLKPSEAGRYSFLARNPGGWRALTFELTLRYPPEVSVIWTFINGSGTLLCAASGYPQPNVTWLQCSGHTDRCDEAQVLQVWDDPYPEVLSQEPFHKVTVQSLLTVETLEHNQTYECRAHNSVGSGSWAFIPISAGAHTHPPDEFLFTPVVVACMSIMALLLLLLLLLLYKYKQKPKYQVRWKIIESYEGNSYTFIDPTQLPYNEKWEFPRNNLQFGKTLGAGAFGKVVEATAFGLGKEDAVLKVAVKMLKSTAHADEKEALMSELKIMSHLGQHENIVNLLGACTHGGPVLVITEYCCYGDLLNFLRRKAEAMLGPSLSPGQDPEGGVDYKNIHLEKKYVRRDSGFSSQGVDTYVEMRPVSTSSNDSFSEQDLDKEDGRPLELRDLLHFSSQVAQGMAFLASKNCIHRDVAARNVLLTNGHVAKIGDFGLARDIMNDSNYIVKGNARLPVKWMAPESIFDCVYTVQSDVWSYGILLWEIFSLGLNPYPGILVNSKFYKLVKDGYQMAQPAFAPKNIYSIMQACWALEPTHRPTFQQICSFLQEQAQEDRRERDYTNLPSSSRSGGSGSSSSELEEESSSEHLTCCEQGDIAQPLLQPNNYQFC
Structure (SMILES),inhibition at 1 µM ([1]; HEK293H cells) [%],inhibition at 1 µM [2] [%],inhibition at 1 µM (kinase domain of PDGFRβ) [%],inhibition at 1 µM (kinase domain of cKIT) [%],inhibition at 1 µM ([3]; MNFS60 cells) [%],inhibition at 1 µM ([1]; compounds of Table 3) [%],inhibition at 1 µM ([2]; compounds of Table 3) [%],inhibition at 1 µM (kinase domain of PDGFRβ; compounds of Table 3) [%],inhibition at 1 µM (kinase domain of cKIT; compounds of Table 3) [%],inhibition at 1 µM ([3]; compounds of Table 3) [%],inhibition at 1 µM ([3]; MCSF dependent MNFS60 cells) [%]
"CNC(=O)c1cc(Oc2ccc3nc(NCc4cc(OC)ccc4OC)sc3c2)ccn1 [Compound 146, 4-[2-(2,5-Dimethoxy-benzyl-amino)-benzothiazol-6-yloxy]-pyridine-2-carboxylic acid methylamide]",86,99,3,5,56,,,,,,
"O[C@@H]1CCCC[C@H]1Nc1nc2ccc(Oc3ccnc4cc(OC(F)(F)F)ccc34)cc2s1 [Example 230, (1R,2R)-2-(6-(7-(trifluoromethoxy)quinolin-4-yloxy)benzo[d]thiazol-2-ylamino)cyclohexanol]",,,,,,65,100,14,6,58,
"CNC(=O)c1cc(Oc2ccc3nc(NCc4ccccc4N4CCOCC4)sc3c2)ccn1 [Compound 142, 4-[2-(2-Morpholin-4-yl-benzylamino)-benzothiazol-6-yloxy]-2-pyridine-2-carboxylic acid methylamide]",88,99,97,98,100,,,,,,
"CNC(=O)c1cc(Oc2ccc3nc(NCc4ccccc4-n4cccn4)sc3c2)ccn1 [Compound 143, 4-[2-(2-Pyrazol-1-yl-benzyl-amino)-benzothiazol-6-yloxy]-pyridine-2-carboxylic acid methylamide]",91,99,4,33,97,,,,,,
"CC(C)Cn1cc(-c2cc(Oc3ccc4nc(N[C@@H]5CCCC[C@H]5O)sc4c3)ccn2)cn1 [Example 359, (1R,2R)-2-(6-(2-(1-isobutyl-1H-pyrazol-4-yl)pyridin-4-yloxy)benzo[d]thiazol-2-ylamino)cyclohexanol]",93,100,19,31,,,,,,,95
"CNC(=O)c1cc(Oc2ccc3nc(NCc4cccc5c4OCCO5)oc3c2)ccn1 [Compound 65, 4-{2-[(2,3-Dihydro-benzo-[1,4]dioxin-5-ylmethyl)-amino]-benzooxazol-6-yloxy}-pyridine-2-carboxylic acid methylamide]",97,99,38,98,100,,,,,,
"Cc1c[nH]c(-c2cc(Oc3ccc4nc(N[C@@H]5CCCC[C@H]5O)sc4c3)ccn2)n1 [Example 231, (1R,2R)-2-(6-(2-(4-methyl-1H-imidazol-2-yl)pyridin-4-yloxy)benzo[d]thiazol-2-ylamino)cyclohexanol]",,,,,,99,100,49,9,100,
"O[C@@H]1CCCC[C@H]1Nc1nc2ccc(Oc3ccnc(-c4ccco4)c3)cc2s1 [Example 371, (1R,2R)-2-(6-(2-(furan-2-yl)pyridin-4-yloxy)benzo[d]thiazol-2-ylamino)cyclohexanol]",79,100,9,29,,,,,,,69
"C[C@H](Nc1nc2ccc(Oc3ccnc(-c4ccncc4)c3)cc2s1)C1CCCCC1 [Example 275, (S)-6-(2,4'-bipyridin-4-yloxy)-N-(1-cyclohexylethyl)benzo[d] thiazol-2-amine]",,,,,,94,100,16,45,89,
"CNC(=O)c1cc(Oc2ccc3nc(N[C@@H]4CCCC[C@H]4NS(C)(=O)=O)sc3c2)ccn1 [Example 326, N-methyl-4-(2-((1R,2R)-2-(methylsulfonamido)cyclo-hexylamino)benzo[d]thiazol-6-yloxy)picolinamide]",81,65,7,44,,,,,,,33
"N#Cc1ccc2c(Oc3ccc4nc(N[C@@H]5CCCC[C@H]5O)sc4c3)ccnc2c1 [Example 222, 4-(2-((1R,2R)-2-hydroxycyclohexylamino)benzo[d]thiazol-6-yloxy)quinoline-7-carbonitrile]",,,,,,68,100,69,52,91,
"CNC(=O)c1cc(Oc2ccc3nc(NCCc4ccccc4)sc3c2)ccn1 [Compound 133, 4-(2-Phenethylamino-benzo-thiazol-6-yloxy)-pyridine-2-carboxylic acid methylamide]",92,99,3,53,45,,,,,,
CNC(=O)c1cc(Oc2ccc3nc(N[C@H](CO)C(C)C)sc3c2)ccn1 [Compound 102],,,,,,88,100,9,0,75,
"O[C@@H]1CCCC[C@H]1Nc1nc2ccc(Oc3ccnc(-c4ncco4)c3)cc2s1 [Example 372, (1R,2R)-2-(6-(2-(oxazol-2-yl)pyridin-4-yloxy)benzo[d]thiazol-2-ylamino)cyclohexanol]",88,100,8,21,,,,,,,75
"CNC(=O)c1cc(Oc2ccc3nc(N[C@H](C)c4ccccc4)sc3c2)ccn1 [Compound 131, 4-[2-((R)-1-Phenyl-ethylamino)-benzothiazol-6-yloxy]-pyridine-2-carboxylic acid methylamide]",98,99,55,96,100,,,,,,
"OC[C@H](Nc1nc2ccc(Oc3ccnc4ccccc34)cc2s1)C1CCCCC1 [Example 240, (R)-2-cyclohexyl-2-(6-(quinolin-4-yloxy)benzo[d]thiazol-2-ylamino)ethanol]",,,,,,71,100,16,21,66,
"CNC(=O)c1cc(Oc2ccc3nc(NC(C)c4cccc5c4OCCO5)oc3c2)ccn1 (centres unmarked) [Compound 125, 4-{2-[1-(2,3-Dihydro-benzo-[1,4]dioxin-5-yl)-ethylamino]-benzooxazol-6-yloxy}-pyridine-2-carboxylic acid methylamide]",45,100,0,35,44,,,,,,
"C[C@H](Nc1nc2ccc(Oc3ccnc(-c4cnc5[nH]ccc5c4)c3)cc2s1)C1CCCCC1 [Example 278, (S)-6-(2-(1H-pyrrolo[2,3-b]pyridin-5-yl)pyridin-4-yloxy)-N-(1-cyclohexylethyl)benzo[d] thiazol-2-amine]",,,,,,75,100,12,38,82,
"CNC(=O)c1cc(Oc2ccc3nc(NCc4c(F)cccc4OC)sc3c2)ccn1 [Example 223, 4-(2-(2-fluoro-6-methoxybenzylamino)benzo[d]thiazol-6-yloxy)-N-methylpicolinamide]",,,,,,97,100,28,54,100,
